PubChem BioAssay (NCI)
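Where inhibition never reached the appropriate level, the endpoint shown equals the highest concentration tested. Otherwise, values were interpolated linearly from a five-concentration, 48-hour dose response in 96-well plates. The concentration for 50% growth inhibition is given as GI50. At the TGI there is no net growth.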

Columns and labels:
Assay in all cases: inhibition of tumour cell growth, NCI panel, 48 h
LOX IMVI melanoma = tested on: LOX IMVI melanoma
SNB-19 CNS = tested on: SNB-19 CNS
MALME-3M melanoma = tested on: MALME-3M melanoma
HCT-15 colon = tested on: HCT-15 colon
HOP-18 NSCLC = tested on: HOP-18 NSCLC
UACC-62 melanoma = tested on: UACC-62 melanoma
NCI-H460 lung = tested on: NCI-H460 lung
TK-10 renal = tested on: TK-10 renal
A549 NSCLC = tested on: A549 NSCLC
HCT-116 colon = tested on: HCT-116 colon

Row | Compound | TGI (LOX IMVI melanoma) [µM] | TGI (SNB-19 CNS) [µM] | TGI (MALME-3M melanoma) [µM] | TGI (HCT-15 colon) [µM] | TGI (HOP-18 NSCLC) [µM] | TGI (UACC-62 melanoma) [µM] | TGI (NCI-H460 lung) [µM] | TGI (TK-10 renal) [µM] | TGI (A549 NSCLC) [µM] | GI50 (LOX IMVI melanoma) [µM] | GI50 (SNB-19 CNS) [µM] | GI50 (MALME-3M melanoma) [µM] | GI50 (HCT-15 colon) [µM] | GI50 (HOP-18 NSCLC) [µM] | GI50 (HCT-116 colon) [µM] | TGI (HCT-116 colon) [µM] | GI50 (UACC-62 melanoma) [µM] | GI50 (NCI-H460 lung) [µM] | GI50 (TK-10 renal) [µM] | GI50 (A549 NSCLC) [µM]
1 | COc1ccc2nc(-c3cccs3)cc(C(O)CN3CCSCC3)c2c1 (configuration not stated) | 34.4 | > 100 | 35 | 57.8 | 54.7 | 38.6 | 45.1 | 91.8 | > 100 |  |  |  |  |  |  |  |  |  |  | 
2 | C1C[OH+]CC[OH+]CCNCC[OH+]CC[OH+]CCN1.N.[Cl-].[Pt+4] | 28.4 | 62.6 | 18.3 | 71.6 | > 100 | 14.9 | 63.9 | 71.3 | > 100 | 7.66 | 7.22 | 3.14 | 20.2 | 19.9 | 10.1 | 65.8 | 3.39 | 1.81 | 8.31 | 15.4
3 | NNC(=O)/C(=C/c1ccc(Cl)cc1Cl)NC(=O)c1ccccc1 | > 100 | > 100 | > 100 | > 100 | > 100 | > 100 | > 100 | > 100 | > 100 |  |  |  |  |  |  | > 100 |  |  |  | 
4 | C/C(=N\NS(=O)(=O)c1ccccc1)c1ccc(Cl)c(Cl)c1 | > 100 |  | > 100 | > 100 | > 100 | > 100 | > 100 | > 100 | > 100 |  |  |  |  |  |  | > 100 |  |  |  | 
5 | O=C(N/C(=C\c1ccc2c(c1)OCO2)c1nc2ccccc2[nH]1)c1ccccc1 | > 100 | > 100 | > 89.7 | > 100 | > 100 | 56.9 | > 100 | 92.3 | > 100 |  |  |  |  |  |  | > 89 |  |  |  | 
6 | COC(=O)C(=O)C1(CCC(C)=O)c2ccccc2-c2c(C)ccc(C)c21 (configuration not stated) | > 100 | > 100 | > 100 | > 100 | > 100 | > 100 | > 100 | > 100 | > 100 |  |  |  |  |  |  | > 100 |  |  |  | 
7 | CCc1ccccc1NC(=O)C(=O)CC(=O)c1sc(Nc2ccccc2)nc1C | > 100 | > 100 | > 100 | > 100 | > 100 | > 100 | > 100 | > 100 | > 100 |  |  |  |  |  |  | > 100 |  |  |  | 
8 | CCOC(=O)COc1ccccc1/C=C1\CCC(CN(C)C)C1=O (configuration not stated) | 5.43 | 20.6 | 12 | 9.86 | 37.9 | 17.4 | 33.7 | 25.6 | 42.8 |  |  |  |  |  |  | 9.36 |  |  |  | 
9 | Nc1ccn(CCNCCn2cnc3nc(N)[nH]c(=O)c32)c(=O)n1 | > 100 | > 100 | > 100 | > 100 | > 100 |  | > 100 | > 100 | > 100 |  |  |  |  |  |  | > 100 |  |  |  | 
10 | Cc1ccc(C(=O)c2nnc(C(=O)c3ccc(C)cc3)nn2)cc1 | 35.6 | > 100 | > 100 | > 100 | > 100 | > 100 | 33.8 | > 100 | > 100 |  |  |  |  |  |  | > 100 |  |  |  | 
11 | Cc1ccc(NC(=O)C(=O)C(C#N)c2ccccc2C)cc1C (configuration not stated) | > 55.3 | > 100 | > 100 | > 62 | > 100 | > 100 | > 79.9 | > 100 | > 100 |  |  |  |  |  |  | > 63 |  |  |  | 
12 | CCOc1ccc(NC(=O)C(=O)CC(=O)C2=C(C)Nc3ccccc3S2)cc1 | > 50 | > 50 | > 50 | > 50 | > 50 | > 50 | > 50 | > 50 | > 50 |  |  |  |  |  |  | > 50 |  |  |  | 
13 | Cc1c(C(=O)C/C(=N\O)C(=O)Nc2cc(Cl)c(Cl)cc2Cl)[n+](=O)c2ccccc2n1[O-] | 43.6 | > 100 | 21.1 | 23.5 | 82.4 | 16.5 | 35.2 | 72.2 | > 100 |  |  |  |  |  |  | 17 |  |  |  | 
14 | Cc1[nH]ccc2c1[nH]c1cc(=O)ccc12 | > 100 | > 100 | > 100 | > 100 | > 100 | > 100 | > 100 | > 100 | > 100 |  |  |  |  |  |  | > 100 |  |  |  | 
